Test results as given in US12116359B2, “EBNA1 inhibitor crystalline forms, and methods of preparing and using same” (THE WISTAR INSTITUTE, priority 2018, dated 2024).
“Also recorded” adds a separate entry of the source.

What was measured:
Format in all cases: physicochemical
[1] = Variable temperature XRPD; settings: 25-165° C.
Procedure: Samples run under non-ambient conditions were mounted on a silicon wafer with heat-conducting compound. The sample was then heated to the appropriate temperature at 30° C./min and subsequently held isothermally for 1 minute before data collection was initiated.

[2] = Storage stability of solid forms at elevated temperature/humidity (XRPD, HPLC purity); settings: 25° C./97% RH, one week; listed as Crystalline Pattern 5
[3] = Gravimetric vapour sorption (GVS); settings: for Hygroscopicity: GVS, 0-90% RH
Procedure: Sorption isotherms were obtained using a SMS DVS Intrinsic moisture sorption analyzer, controlled by DVS Intrinsic Control software. The sample temperature was maintained at 25° C. by instrument controls. The humidity was controlled by mixing streams of dry and wet nitrogen, with a total flow rate of 200 ml/min. The relative humidity was measured by a calibrated Rotronic probe (dynamic range of 1.0-100% RH), located near the sample. The weight change (mass relaxation) of the sample as a function of % RH was constantly monitored by the microbalance (accuracy ±0.005 mg). Typically 5-20 mg of sample was placed in a tared mesh stainless steel basket under ambient conditions. The sample was loaded and unloaded at 40% RH and 25° C. (typical room conditions). A moisture sorption isotherm was performed as outlined below (2 scans giving 1 complete cycle). The standard isotherm was performed at 25° C. at 10% RH intervals over a 0-90% RH range. Data analysis was carried out using Microsoft Excel. The sample was recovered after completion of the isotherm and re-analyzed by XRPD.

[4] = Storage stability of solid forms at elevated temperature/humidity (XRPD, HPLC purity); settings: one week
Procedure: Purity analysis was performed on an Agilent HP1100 series system equipped with a diode array detector and using ChemStation software vB.04.03 using the method detailed in Table 1.
Amorphous (I) free acid was stored at 40° C./75% RH (open vial), 25° C./97% RH (open vial) and 60° C. (closed vial, ambient humidity) for 8 weeks.
Characterization by XRPD, ^1H NMR, TGA, DSC and storage at 40° C./75% RH for one week was carried out. Details are found in Table 10.

[5] = Stability assessment of Pattern 5 slurried in solvents at 4 or 50° C.; settings: for Solid form recovered in stability assessment: 4 and 50° C., 8 solvents including solvent mixtures, XRPD; for Observations Overnight at 4° C. maturation / Observations Overnight at 50° C. maturation: 16 h
Procedure: The aim of this set of experiments was to test the stability of Pattern 5 in different conditions by slurring the material at either 4 or 50° C. in a range of 8 selected solvents including mixtures.
The supplied material was dissolved or suspended in the chosen solvent at r.t. Solvents were added in 10 vol. aliquots up to 30 vol. and observations were recorded; if a solution was obtained at any point then no further additions were made. Samples were kept at 4° C. or 50° C. over 16 h, and analyzed by XRPD. The solids were filtered and analyzed by XRPD. The solutions were allowed to evaporate at r.t. to afford solids which were also analyzed by XRPD.

[6] = listed as Crystalline Pattern 5
[7] = EtOAc, solid after evaporation at r.t.
[8] = EtOAc/EtOH (1:3), solid after evaporation at r.t.
[9] = EtOAc/EtOH (3:1), solid after evaporation at r.t.

SMILES: O=C(O)c1cccc(C#Cc2ccc(COC3CCOCC3)cc2)c1-c1ccc2cc[nH]c2c1 [Pattern 5, 2-(1H-Indol-6-yl)-3-[4-(tetrahydro-pyran-4-yloxymethyl)-phenylethynyl]-benzoic acid]
- Variable temperature XRPD [1]: remained as Pattern 5
- Variable temperature XRPD [1, 6]: Remained as Pattern 5 from 25-165 °C
- XRPD post 25° C./97% RH [2]: No change in crystalline form; also recorded: Unchanged
- Hygroscopicity [3]: non-hygroscopic
- Hygroscopicity [3, 6]: non-hygroscopic; also recorded: not hygroscopic
- XRPD after GVS ([3]; after 0-90% RH isotherm, listed as Crystalline Pattern 5): Unchanged by XRPD
- GVS moisture uptake ([3]; between 0-90% RH, 25° C., listed as Crystalline Pattern 5): 0.3%
- XRPD post 25° C./97% RH ([4]; 25° C./97% RH): remained unchanged by XRPD
- HPLC Purity after storage at 25° C./97% RH (Pharmorphix generic method) ([4]; 25° C./97% RH, initial purity 98.3% A.U.C.): 98.0 % A.U.C.
- XRPD post 40° C./75% RH ([4]; 40° C./75% RH): remained unchanged by XRPD
- HPLC Purity after storage at 40° C./75% RH (Pharmorphix generic method) ([4]; 40° C./75% RH, initial purity 98.3% A.U.C.): 98.0 % A.U.C.
- XRPD post 40° C./75% RH ([4]; 40° C./75% RH, listed as Crystalline Pattern 5): No change in crystalline form; also recorded: Unchanged
- Solid form recovered in stability assessment [5]: no change in solid form
- Solid form recovered in stability assessment [5, 6]: Pattern 5 being recovered in all cases
- Observations Overnight at 4° C. maturation ([5]; EtOAc): solution
- XRPD after stability assessment at 4° C. [5, 7]: Pattern 5
- Observations Overnight at 50° C. maturation ([5]; EtOAc): solution
- XRPD after stability assessment at 50° C. [5, 7]: Pattern 5
- Observations Overnight at 4° C. maturation ([5]; EtOAc/EtOH (1:3)): solution
- XRPD after stability assessment at 4° C. [5, 8]: Pattern 5
- Observations Overnight at 50° C. maturation ([5]; EtOAc/EtOH (1:3)): solution + yellow solid
- XRPD after stability assessment at 50° C. [5, 8]: Pattern 5
- Observations Overnight at 4° C. maturation ([5]; EtOAc/EtOH (3:1)): solution
- XRPD after stability assessment at 4° C. [5, 9]: Pattern 5
- Observations Overnight at 50° C. maturation ([5]; EtOAc/EtOH (3:1)): solution + yellow solid
- XRPD after stability assessment at 50° C. [5, 9]: Pattern 5
- XRPD after stability assessment at 4° C. ([5]; EtOH): Pattern 5
- Observations Overnight at 4° C. maturation ([5]; EtOH): White Suspension
- Observations Overnight at 50° C. maturation ([5]; EtOH): solution
- XRPD after stability assessment at 50° C. ([5]; EtOH, solid after evaporation at r.t.): Pattern 5
- XRPD after stability assessment at 4° C. ([5]; Heptane): Pattern 5
- Observations Overnight at 4° C. maturation ([5]; Heptane): White Suspension
- XRPD after stability assessment at 50° C. ([5]; Heptane): Pattern 5
- Observations Overnight at 50° C. maturation ([5]; Heptane): White Suspension
- XRPD after stability assessment at 4° C. ([5]; IPA): Pattern 5
- Observations Overnight at 4° C. maturation ([5]; IPA): White Suspension
- Observations Overnight at 50° C. maturation ([5]; IPA): solution + yellow solid
- XRPD after stability assessment at 50° C. ([5]; IPA, solid after evaporation at r.t.): Pattern 5
- XRPD after stability assessment at 4° C. ([5]; MIBK): Pattern 5
- Observations Overnight at 4° C. maturation ([5]; MIBK): Off-White Suspension
- Observations Overnight at 50° C. maturation ([5]; MIBK): solution
- XRPD after stability assessment at 50° C. ([5]; MIBK, solid after evaporation at r.t.): Pattern 5
- XRPD after stability assessment at 4° C. ([5]; TBME): Pattern 5
- Observations Overnight at 4° C. maturation ([5]; TBME): White Suspension
- XRPD after stability assessment at 50° C. ([5]; TBME): Pattern 5
- Observations Overnight at 50° C. maturation ([5]; TBME): White Suspension
